Experimental data as given in patent US10668040B2, “Treatment of urea cycle disorders in neonates and infants” (Horizon Therapeutics, LLC, priority 2017, dated 2020).

Tested on: UCD patients
Assay: Example 3: BMI and BSA Z-scores up to Month 24
Assay type: in vivo, human
Experimental: Baseline and Change from Baseline in Body Mass Index (BMI) Z-Score Up to Month 24
(§1) To assess any effect of study drug treatment on growth, Z-scores were calculated to express the deviation from a reference population for BMI. The Z-scores are based on the World Health Organization's Child Growth Standards charts. Negative Z-scores indicate lower than typical for age and gender while positive scores indicate higher than typical for age and gender. BMI measurements were taken on month 1, month 2, month 3, month 4, month 5, month 6, month 9, month 12, month 15, month 18, and month 24.
Baseline and Change from Baseline in Body Surface Area (BSA) Z-Score Up to Month 24
as §1, with “BSA.” for “BMI.”, “weight-for-length” for “the World Health Organization's Child Growth Standards”

[1] = Age 2 months to <2 years, Month 1
[2] = Age 2 months to <2 years, Month 2
[3] = Age 2 months to <2 years, Month 3
[4] = Age 2 months to <2 years, Month 4
[5] = Age 2 months to <2 years, Month 5
[6] = Age 2 months to <2 years, Month 6
[7] = Age 2 months to <2 years, Month 9
[8] = Age 2 months to <2 years, Month 12
[9] = Age 2 months to <2 years, Month 15
[10] = Age 2 months to <2 years, Month 18
[11] = Age 2 months to <2 years, Month 24

O=C(CCCc1ccccc1)OCC(COC(=O)CCCc1ccccc1)OC(=O)CCCc1ccccc1 [RAVICTI, benzenebutanoic acid, 1′,1″-(1,2,3-propanetriyl) ester]
BMI Z-Score baseline (Age 0 to <2 Months): −0.0544 (±1.268);
BSA Z-Score baseline (Age 0 to <2 Months): −0.1980 (±2.118);
BMI Z-Score change from baseline (Age 0 to <2 months, Month 1): −0.2158 (±1.36);
BSA Z-Score change from baseline (Age 0 to <2 months, Month 1): 0.2336 (±1.956);
BMI Z-Score change from baseline (Age 0 to <2 months, Month 2): −0.2598 (±1.195);
BSA Z-Score change from baseline (Age 0 to <2 months, Month 2): 0.2006 (±1.721);
BMI Z-Score change from baseline (Age 0 to <2 months, Month 3): −0.1617 (±1.026);
BSA Z-Score change from baseline (Age 0 to <2 months, Month 3): 0.2684 (±1.375);
BMI Z-Score change from baseline (Age 0 to <2 months, Month 4): −0.0264 (±1.682);
BSA Z-Score change from baseline (Age 0 to <2 months, Month 4): 0.2372 (±2.308);
BMI Z-Score change from baseline (Age 0 to <2 months, Month 5): 0.0828 (±1.142);
BSA Z-Score change from baseline (Age 0 to <2 months, Month 5): 0.1810 (±1.7);
BMI Z-Score change from baseline (Age 0 to <2 months, Month 6): 0.0136 (±1.721);
BSA Z-Score change from baseline (Age 0 to <2 months, Month 6): 0.2902 (±2.06);
BMI Z-Score change from baseline (Age 0 to <2 months, Month 9): 0.4614 (±1.253);
BSA Z-Score change from baseline (Age 0 to <2 months, Month 9): 0.1679 (±1.324);
BMI Z-Score change from baseline (Age 0 to <2 months, Month 12): 0.6646 (±0.9533);
BSA Z-Score change from baseline (Age 0 to <2 months, Month 12): 0.1308 (±0.5037);
BMI Z-Score change from baseline (Age 0 to <2 months, Month 15): 0.6830 (±0.557);
BSA Z-Score change from baseline (Age 0 to <2 months, Month 15): 0.1595 (±0.7583);
BMI Z-Score change from baseline (Age 0 to <2 months, Month 18): 0.3308 (±0.2757);
BSA Z-Score change from baseline (Age 0 to <2 months, Month 18): 0.1050 (±0.7352);
BMI Z-Score change from baseline (Age 0 to <2 months, Month 24): 0.7743 (±0.6496);
BSA Z-Score change from baseline (Age 0 to <2 months, Month 24): 0.7341 (±1.356);
BMI Z-Score baseline (Age 2 Months to <2 Years): 0.8107 (±2.17);
BSA Z-Score baseline (Age 2 Months to <2 Years): 0.7143 (±2.149);
BMI Z-Score change from baseline [1]: −0.2385 (±0.7783);
BSA Z-Score change from baseline [1]: −0.2105 (±0.7413);
BMI Z-Score change from baseline [2]: −0.0249 (±0.7486);
BSA Z-Score change from baseline [2]: −0.0704 (±0.7039);
BMI Z-Score change from baseline [3]: 0.1815 (±0.8606);
BSA Z-Score change from baseline [3]: 0.1065 (±0.7016);
BMI Z-Score change from baseline [4]: 0.4434 (±0.9485);
BSA Z-Score change from baseline [4]: 0.3365 (±0.7767);
BMI Z-Score change from baseline [5]: 0.1484 (±0.7629);
BSA Z-Score change from baseline [5]: 0.1043 (±0.5675);
BMI Z-Score change from baseline [6]: 0.2497 (±0.8092);
BSA Z-Score change from baseline [6]: 0.1842 (±0.622);
BMI Z-Score change from baseline [7]: 0.6407 (±0.9869);
BSA Z-Score change from baseline [7]: 0.4875 (±0.8614);
BMI Z-Score change from baseline [8]: 0.4164 (±0.8067);
BSA Z-Score change from baseline [8]: 0.2944 (±0.7513);
BMI Z-Score change from baseline [9]: −0.2997 (±0.1696);
BSA Z-Score change from baseline [9]: −0.3661 (±0.00932);
BMI Z-Score change from baseline [10]: −0.2038 (±00000);
BSA Z-Score change from baseline [10]: −0.2214 (±00000);
BMI Z-Score change from baseline [11]: 0.5581 (±1.24);
BSA Z-Score change from baseline [11]: 0.4310 (±1.131);
